Experimental data: patent publication US8481576B2 (Abbott GmbH & Co. KG, priority 2004, dated 2013)
Structures can show the parent of a compound that is named as a salt.

Biological target: T1, h5-HT5A receptor (Homo sapiens, UniProt P47898)
T1 construct: expressed in transfected cells; host or cells: HEK293
Assay: [3H]5-CT binding assay h5-HT5A
Settings: membranes from HEK293 cells expressing h5-HT5A, 2.5 nM [3H]5-CT; read-out: Binding affinity 5-HT5A (Ki)
Outline: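 Membranes from HEK293 cells stably expressing h5-HT5A incubated with 2.5 nM [3H]5-CT and compound in 100 mM Tris-HCl pH 7.7, 1 mM EDTA, 75 min at 30° C. Nonspecific binding with 10 μM methiothepine; filtration and scintillation counting give Ki or IC50.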

T1 sequence (P47898 whole entry): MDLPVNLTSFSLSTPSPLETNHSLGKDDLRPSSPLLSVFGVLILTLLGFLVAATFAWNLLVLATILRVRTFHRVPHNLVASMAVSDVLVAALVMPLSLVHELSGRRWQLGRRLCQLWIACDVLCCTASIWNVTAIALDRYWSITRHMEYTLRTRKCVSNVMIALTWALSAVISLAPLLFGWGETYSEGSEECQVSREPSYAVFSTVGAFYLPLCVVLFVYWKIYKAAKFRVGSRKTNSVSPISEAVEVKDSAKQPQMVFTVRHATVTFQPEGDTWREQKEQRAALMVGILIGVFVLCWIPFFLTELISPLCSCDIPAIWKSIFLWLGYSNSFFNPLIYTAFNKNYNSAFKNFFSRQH

Row | Structure (SMILES) | Ki [nM]
1 | COc1cccc(OC)c1CNC(=N)Nc1nc(C2CCCN2Cc2ccccc2)cs1 (centres unmarked) [Example 151, N-[4-(1-benzylpyrrolidine-2-yl)-1,3-thiazole-2-yl]-N′-(2,6-dimethoxybenzyl)guanidine] | < 50
2 | COc1cccc(Cl)c1CNC(=N)Nc1nc(-c2ncc(F)cc2F)cs1 [Example 152, N-(2-chloro-6-methoxybenzyl)-N′-[4-(3,5-difluoropyridine-2-yl)-1,3-thiazole-2-yl]guanidine] | < 50
3 | COc1cccc(OC)c1CNC(=N)Nc1nc(-c2ccc(F)cc2OCCN2CCOCC2)cs1 [Example 153, N-(2,6-dimethoxybenzyl)-N′-{4-[4-fluoro-2-(2-morpholine-4-ylethoxy)phenyl]-1,3-thiazole-2-yl}guanidine] | < 50
4 | COc1cccc(OC)c1CNC(=N)Nc1nc(CN)cs1 [Example 154, N-[4-(aminomethyl)-1,3-thiazole-2-yl]-N′-(2,6-dimethoxybenzyl)guanidine hydrochloride] | < 50
5 | COc1cccc(OC)c1CNC(=N)Nc1nc(CNC(=O)c2ccccc2)cs1 [Example 155, N-[(2-{[[(2,6-dimethoxybenzyl)amino](imino)methyl]amino}-1,3-thiazole-4-yl)methyl]benzamide] | < 50
6 | COc1cccc(OC)c1CNC(=N)Nc1nc(C2CCCN2C(C)C)cs1 (centres unmarked) [Example 156, N-(2,6-dimethoxybenzyl)-N′-[4-(1-isopropylpyrrolidine-2-yl)-1,3-thiazole-2-yl]guanidine] | 50 to 500
7 | CCCCS(=O)(=O)NCc1csc(NC(=N)NCc2c(OC)cccc2OC)n1 [Example 157, N-[(2-{[[(2,6-dimethoxybenzyl)amino](imino)methyl]amino}-1,3-thiazole-4-yl)methyl]butane-1-sulfonamide] | < 50
8 | COc1cccc(OC)c1CNC(=N)Nc1nc(CN(C)C)cs1 [Example 158, N-(2,6-Dimethoxybenzyl)-N′-{4-[(dimethylamino)methyl]-1,3-thiazole-2-yl}guanidine acetate] | < 50
9 | COC(=O)NCc1csc(NC(=N)NCc2c(OC)cccc2OC)n1 [Example 159, Methyl[(2-{[[(2,6-dimethoxybenzyl)amino](imino)methyl]amino}-1,3-thiazole-4-yl)methyl]carbamate] | < 50
10 | COC(=O)c1sc(NC(=N)NCc2c(OC)cccc2OC)nc1-c1ccc(F)cc1 [Example 160, Methyl-2-{[[(2,6-dimethoxybenzyl)amino](imino)methyl]amino}-4-(4-fluorophenyl)-1,3-thiazole-5-carboxylate] | < 50
11 | COc1cccc(OC)c1CNC(=N)Nc1nc(C2CCNCC2)cs1 [Example 162, N-(2,6-dimethoxybenzyl)-N′-(4-piperidine-4-yl-1,3-thiazole-2-yl)guanidine hydrochloride] | < 50
12 | COc1cccc(OC)c1CNC(=N)Nc1nc(C2CCN(S(C)(=O)=O)CC2)cs1 [Example 163, N-(2,6-dimethoxybenzyl)-N′-{4-[1-(methylsulfonyl)piperidine-4-yl]-1,3-thiazole-2-yl}guanidine] | < 50
13 | COc1cccc(OC)c1CNC(=N)Nc1nc(-c2ncccc2Cl)cs1 [Example 164, N-[4-(3-chloropyridine-2-yl)-1,3-thiazole-2-yl]-N′-(2,6-dimethoxybenzyl)guanidine] | < 50
14 | COc1cccc(OC)c1CNC(=N)Nc1nc(-c2ccnc3c(F)cccc23)cs1 [Example 165, N-(2,6-dimethoxybenzyl)-N′-[4-(8-fluorochinoline-4-yl)-1,3-thiazole-2-yl]guanidine] | < 50
15 | COc1ccccc1CNC(=N)Nc1nc(N2CCCCC2)cs1 [Example 166, 1-[2-({imino[(2-methoxybenzyl)amino]methyl}amino)-1,3-thiazole-4(5H)-ylidene]piperidinium chloride] | > 500
16 | COc1cccc(OC)c1CNC(=N)Nc1nc(N2CCOCC2)cs1 [Example 167, 4-[2-{[[(2,6-dimethoxybenzyl)amino](imino)methyl]amino}-1,3-thiazole-4(5H)-yliden]morpholine-4-ium chloride] | 50 to 500
17 | COc1ccccc1CNC(=N)Nc1nc2ccc(C)cc2s1 [Example 168, N-(2-methoxybenzyl)-N′-(6-methyl-1,3-benzothiazole-2-yl)guanidine fumarate] | 50 to 500
18 | COc1cccc(Cl)c1CNC(=N)Nc1nc(-c2ccc(F)cc2)c[nH]1 [Example 195, N-(2-chlor-6-methoxybenzyl)-N′-[4-(4-fluorphenyl)-1H-imidazole-2-yl]guanidine acetate] | < 50

Further lines, results first:

Row | Ki [nM] | Structure (SMILES)
19 | < 50 | COc1cccc(OC)c1CNC(=N)Nc1nc2ccc(C)cc2s1 [Example 169, N-(2,6-dimethoxybenzyl)-N′-(6-methyl-1,3-benzothiazole-2-yl)guanidine fumarate]
20 | 50 to 500 | CCOc1ccc2nc(NC(=N)NCc3ccccc3OC)sc2c1 [Example 170, N-(6-ethoxy-1,3-benzothiazole-2-yl)-N′-(2-methoxybenzyl)guanidine fumarate]
21 | 50 to 500 | COc1cccc(OC)c1CNC(=N)Nc1nc2cc(Cl)c(C)cc2s1 [Example 171, N-(5-chlor-6-methyl-1,3-benzothiazole-2-yl)-N′-(2,6-dimethoxybenzyl)guanidine difumarate]
22 | < 50 | COc1cccc(OC)c1CNC(=N)Nc1nc2cc(C)c(C)cc2s1 [Example 172, N-(2,6-dimethoxybenzyl)-N′-(5,6-dimethyl-1,3-benzothiazole-2-yl)guanidine fumarate]
23 | 50 to 500 | COc1ccccc1CNC(=N)Nc1nc(C)c(C)o1 [Example 173, N-(4,5-dimethyl-1,3-oxazole-2-yl)-N′-(2-methoxybenzyl)guanidine]
24 | < 50 | COc1cccc(OC)c1CNC(=N)Nc1nc(C)c(C)o1 [Example 174, N-(2,6-dimethoxybenzyl)-N′-(4,5-dimethyl-1,3-oxazole-2-yl)guanidine acetate]
25 | > 500 | COc1ccccc1CNC(=N)Nc1nnc(-c2ccccc2)s1 [Example 175, N-(2-methoxybenzyl)-N′-(5-phenyl-1,3,4-thiadiazole-2-yl)guanidine acetate]
26 | 50 to 500 | COc1cccc(OC)c1CNC(=N)Nc1nnc(-c2ccccc2)s1 [Example 176, N-(2,6-dimethoxybenzyl)-N′-(5-phenyl-1,3,4-thiadiazole-2-yl)guanidine]
27 | < 50 | COc1cccc(OC)c1CNC(=N)Nc1ncc[nH]1 [Example 177, N-(2,6-dimethoxybenzyl)-N′-1H-imidazole-2-ylguanidine acetate]
28 | 50 to 500 | COc1ccccc1CNC(=N)Nc1nnc(C)s1 [Example 178, N-(2-methoxybenzyl)-N′-(5-methyl-1,3,4-thiadiazole-2-yl)guanidine]
29 | < 50 | COc1ccccc1CNC(=N)Nc1n[nH]c2ccccc12 [Example 179, N-1H-indazole-3-yl-N′-(2-methoxybenzyl)guanidine acetate]
30 | < 50 | COc1cccc(OC)c1CNC(=N)Nc1n[nH]c2ccccc12 [Example 180, N-(2,6-dimethoxybenzyl)-N′-1H-indazole-3-ylguanidine acetate]
31 | < 50 | COc1cccc(OC)c1CNC(=N)Nc1nnc(C)[nH]1 [Example 181, N-(2,6-dimethoxybenzyl)-N′-(5-methyl-4H-1,2,4-triazole-3-yl)guanidine]
32 | < 50 | COc1cccc(OC)c1CNC(=N)Nc1nc2ccccc2[nH]1 [Example 182, N-1H-benzimidazole-2-yl-N′-(2,6-dimethoxybenzyl)guanidine diacetate]
33 | 50 to 500 | COc1ccccc1CNC(=N)Nc1ncc[nH]1 [Example 183, N-1H-imidazole-2-yl-N′-(2-methoxybenzyl)guanidine acetate]
34 | > 500 | COc1ccccc1CNC(=N)Nc1nnc[nH]1 [Example 184, N-(2-methoxybenzyl)-N′-4H-1,2,4-triazole-3-ylguanidine acetate]
35 | > 500 | COc1ccccc1CNC(=N)Nc1nnc(C)[nH]1 [Example 185, N-(2-methoxybenzyl)-N′-(5-methyl-4H-1,2,4-triazole-3-yl)guanidine acetate]
36 | < 50 | COc1ccccc1CNC(=N)Nc1nc(-c2ccc(F)cc2)c[nH]1 [Example 186, N-[4-(4-fluorophenyl)-1H-imidazole-2-yl]-N′-(2-methoxybenzyl)guanidine]
37 | < 50 | COc1cccc(OC)c1CNC(=N)Nc1nc(-c2ccccc2)c[nH]1 [Example 187, N-(2,6-dimethoxybenzyl)-N′-(4-phenyl-1H-imidazole-2-yl)guanidine acetate]
38 | < 50 | COc1ccccc1CNC(=N)Nc1nc(-c2ccccc2)c[nH]1 [Example 188, N-(2-methoxybenzyl)-N′-(4-phenyl-1H-imidazole-2-yl)guanidine acetate]
39 | < 50 | COc1cccc(OC)c1CNC(=N)Nc1nnc[nH]1 [Example 189, N-(2,6-Dimethoxybenzyl)-N′-4H-1,2,4-triazole-3-ylguanidine acetate]
40 | < 50 | COc1cccc(OC)c1CNC(=N)Nc1nc(C)co1 [Example 190, N-(2,6-dimethoxybenzyl)-N′-(4-methyl-1,3-oxazole-2-yl)guanidine acetate]
41 | < 50 | COc1cccc(OC)c1CNC(=N)Nc1nc(-c2ccc(F)cc2)c[nH]1 [Example 191, N-(2,6-dimethoxybenzyl)-N′-[4-(4-fluorophenyl)-1H-imidazole-2-yl]guanidine acetate]
42 | < 50 | CCOC(=O)c1csc(NC(=N)NCc2c(OC)cccc2OC)n1 [Example 192, Ethyl 2-{[[(2,6-dimethoxybenzyl)amino](imino)methyl]amino}-1,3-thiazole-4-carboxylate acetate]
43 | < 50 | C=CCNC(=O)c1csc(NC(=N)NCc2c(OC)cccc2OC)n1 [Example 193, N-allyl-2-{[[(2,6-dimethoxybenzyl)amino](imino)methyl]amino}-1,3-thiazole-4-carboxamide]
44 | < 50 | COc1cccc(OC)c1CNC(=N)Nc1nc(C(=O)NCc2ccccc2)cs1 [Example 194, N-benzyl-2-{[[(2,6-dimethoxybenzyl)amino](imino)methyl]amino}-1,3-thiazole-4-carboxamide]
